Test results from patent publication US20190365843A1, “Antimicrobial Activity of Bioactive Compounds and Their Derivatives” (priority 2018, published 2019).

Experiments:
E. coli ATCC 25922 = assay: Agar diffusion growth inhibition zone, E. coli ATCC 25922; assay type: cell-based; settings: Escherichia coli, 6 mm = no activity; for zone of inhibition at 100 mg/mL: ATCC25922, 100 mg; for zone of inhibition at 150 mg/mL: ATCC25922, 150 mg
Protocol: (§1) Among the bacterial agents tested Gram positive and Gram negative bacterial groups represented by Staphylococcus aureus and Enterococcus species and pathogenic members of Enterobacteriaceae, Vibronaceae, Aeromonadaceae, Pseudomonadaceae were tested. Freshly sub-cultured bacterial strains were inoculated into peptone water and incubated for 4 hours at 37° C. and adjusted to a turbidity of 0.5 (Gram Negative Bacilli), 1 (Gram Positive Cocci) and 4 (Pus cells, GNB, & few Budding yeast cells) Mc Farland standards (10^8 CFU/ml) respectively.
(§2) The different bioactive compounds and their derivatives were dissolved and diluted with solvents (DMSO), number of subsequent dilutions was performed to obtain different concentrations of the bioactive compounds and their derivatives. (Working Concentrations).
(§3) Agar well diffusion method is widely used to evaluate the antimicrobial activity of plants or other synthetic products. The suspension (microbial inoculum) was used to inoculate into Muller Hinton Agar Petri plates by lawn culture. Well (diameter 6 mm) were punched in the agar by sterile borer and filled with 50 μl of dissolved extracts. Plates were incubated in incubator at 37° C. for 24 hours and measured the growth inhibition zone diameters in mm compared with that of control (DMSO) showing no growth.
(§4) The bioactive compounds were tested with desired concentrations in 6 mm filter paper discs (Whatman, no. 3) were impregnated with 10 μL of each of the different dilutions. The discs were allowed to remain at room temperature until complete diluent evaporation and kept under refrigeration until ready to be used. 10 μL of diluents used to products were used as control. Tests were performed by Agar disk-diffusion testing method, which is the official method used in many clinical microbiology laboratories for routine antimicrobial susceptibility testing.
(§5) Similar to the procedure used in Agar well diffusion method, the suspension (microbial inoculum) was used to inoculate into Muller Hinton Agar Petri plates by lawn culture. Then, filter paper discs (about 6 mm in diameter), containing the test compound at a desired concentration, were placed on the agar surface. The Petri dishes were incubated under suitable incubation conditions.
(§6) Bioactive compounds showing zone of inhibition beyond the size of 6 mm are considered to be having an anti-microbial activity.

Pseudomonas sp. = assay: Agar diffusion growth inhibition zone, Pseudomonas sp.; assay type: cell-based, Pseudomonas species; settings: Pseudomonas
EAEC = assay: Agar diffusion growth inhibition zone, EAEC; assay type: cell-based, Enteroaggregative E. coli; settings: Escherichia coli, 6 mm = no activity
Protocol: as §1, §2, §3, §4, §5, §6

Enterococcus sp. = assay: Agar diffusion growth inhibition zone, Enterococcus sp.; assay type: cell-based, Enterococcus species; settings: 6 mm = no activity
Protocol: as §1, §2, §3, §4, §5, §6

ETEC = assay: Agar diffusion growth inhibition zone, ETEC; assay type: cell-based, Enterotoxigenic E. coli; settings: for inhibition of growth: ETEC; for zone of inhibition at 100000 µg/disc / zone of inhibition at 150000 µg/disc: Escherichia coli
Protocol: (§7) Agar well diffusion method is widely used to evaluate the antimicrobial activity of plants or other synthetic products. The suspension (microbial inoculum) was used to inoculate into Muller Hinton Agar Petri plates by lawn culture. Well (diameter 6 mm) were punched in the agar by sterile borer and filled with 50 μl of dissolved extracts. Plates were incubated in incubator at 37° C. for 24 hours and measured the growth inhibition zone diameters in mm compared with that of control (DMSO) showing no growth. The antimicrobial agent diffuses in the agar medium and inhibits the growth of the microbial strain tested (Valgas et al., (2016) Methods for in vitro evaluating antimicrobial activity: A review. Journal of Pharmaceutical Analysis. 6(2):71-9).
(§8) Similar to the procedure used in Agar well diffusion method, the suspension (microbial inoculum) was used to inoculate into Muller Hinton Agar Petri plates by lawn culture. Then, filter paper discs (about 6 mm in diameter), containing the test compound at a desired concentration, were placed on the agar surface. The Petri dishes were incubated under suitable incubation conditions. Generally, antimicrobial agent diffuses into the agar and inhibits germination and growth of the test microorganism and then the diameters of inhibition growth zones are measured (Valgas et al., (2007) Screening methods to determine antibacterial activity of natural products. Brazilian Journal of Microbiology. 38:369-80; Balouiri M et al., (2016) Methods for in vitro evaluating antimicrobial activity: A review. Journal of Pharmaceutical Analysis. 6(2):71-9).

Salmonella typhimurium = assay: Agar diffusion growth inhibition zone, Salmonella typhimurium; assay type: cell-based; settings: Salmonella enterica, 6 mm = no activity
Protocol: as §1, §2, §3, §4, §5, §6

Pleisiomonas sp. = assay: Agar diffusion growth inhibition zone, Pleisiomonas sp.; assay type: cell-based, Pleisiomonas species; settings: for zone of inhibition at 100 mg/mL / zone of inhibition at 150 mg/mL: Pleisiomonas sp., 6 mm = no activity; for inhibition of growth: Plesiomonas species
Protocol: as §1, §2, §3, §4, §5, §6

Shigella sp. = assay: Agar diffusion growth inhibition zone, Shigella sp.; assay type: cell-based, Shigella species; settings: Shigella
Vibrio cholera = assay: Agar diffusion growth inhibition zone, Vibrio cholera; assay type: cell-based, Vibrio cholerae; settings: Vibrio cholerae
Protocol: as §7, §8

Klebsiella sp. = assay: Agar diffusion growth inhibition zone, Klebsiella sp.; assay type: cell-based, Klebsiella species; settings: 6 mm = no activity
Protocol: as §1, §2, §3, §4, §5, §6

S. aureus = assay: Agar diffusion growth inhibition zone, S. aureus; assay type: cell-based, Staphylococcus aureus; settings: for zone of inhibition at 100 mg/mL / zone of inhibition at 150 mg/mL: Staphylococcus aureus, 6 mm = no activity
Protocol: as §1, §2, §3, §4, §5, §6

Aeromonas sp. = assay: Agar diffusion growth inhibition zone, Aeromonas sp.; assay type: cell-based, Aeromonas species; settings: Aeromonas sp., 6 mm = no activity
Protocol: as §1, §2, §3, §4, §5, §6

Citrobacter sp. = assay: Agar diffusion growth inhibition zone, Citrobacter sp.; assay type: cell-based, Citrobacter species; settings: 6 mm = no activity
Protocol: as §1, §2, §3, §4, §5, §6

Proteus sp. = assay: Agar diffusion growth inhibition zone, Proteus sp.; assay type: cell-based, Proteus species; settings: for zone of inhibition at 150 mg/mL: Proteus sp., 6 mm = no activity; for zone of inhibition: Proteus species, at both concentrations of 100 mg and 150 mg
Protocol: as §1, §2, §3, §4, §5, §6

Candida abicans = assay: Agar diffusion growth inhibition zone, Candida abicans; assay type: cell-based, Candida albicans; settings: 6 mm = no activity
Protocol: as §1, §2, §3, §4, §5, §6

SMILES | zone of inhibition at 100 mg/mL (E. coli ATCC 25922) [mm] | zone of inhibition at 150 mg/mL (E. coli ATCC 25922) [mm] | zone of inhibition at 100000 µg/disc (Pseudomonas sp.) [mm] | zone of inhibition at 150000 µg/disc (Pseudomonas sp.) [mm] | zone of inhibition at 100 mg/mL (EAEC) [mm] | zone of inhibition at 150 mg/mL (EAEC) [mm] | zone of inhibition at 100 mg/mL (Enterococcus sp.) [mm] | zone of inhibition at 150 mg/mL (Enterococcus sp.) [mm] | inhibition of growth (ETEC) | zone of inhibition at 100000 µg/disc (ETEC) [mm] | zone of inhibition at 150000 µg/disc (ETEC) [mm] | zone of inhibition at 100 mg/mL (Salmonella typhimurium) [mm] | zone of inhibition at 150 mg/mL (Salmonella typhimurium) [mm] | zone of inhibition at 100 mg/mL (Pleisiomonas sp.) [mm] | zone of inhibition at 150 mg/mL (Pleisiomonas sp.) [mm] | inhibition of growth (Pleisiomonas sp.) | zone of inhibition at 100000 µg/disc (Shigella sp.) [mm] | zone of inhibition at 150000 µg/disc (Shigella sp.) [mm] | zone of inhibition at 100000 µg/disc (Vibrio cholera) [mm] | zone of inhibition at 150000 µg/disc (Vibrio cholera) [mm] | also measured
O=C(/C=C/c1ccc(O)cc1)CC(=O)/C=C/c1ccc(O)cc1 [compound 3, Bis- demethoxycurcumin] | 6 | 6 | 6 | 6 | 6 | 6 | 6 | 6 | significantly inhibited the growth | 9 | 9 | 6 | 6 | 9 | 9 | inhibited | 6 | 6 | 6 | 6 | zone of inhibition at 100 mg/mL (Klebsiella sp.): 6 mm; zone of inhibition at 150 mg/mL (Klebsiella sp.): 6 mm; zone of inhibition at 100 mg/mL (S. aureus): 6 mm; zone of inhibition at 150 mg/mL (S. aureus): 6 mm; zone of inhibition at 100 mg/mL (Aeromonas sp.): 6 mm; zone of inhibition at 150 mg/mL (Aeromonas sp.): 6 mm; zone of inhibition at 100 mg/mL (Citrobacter sp.): 6 mm; zone of inhibition at 150 mg/mL (Citrobacter sp.): 6 mm; zone of inhibition at 150 mg/mL (Proteus sp.): 7 mm; zone of inhibition (Proteus sp.): 7 mm; zone of inhibition at 100 mg/mL (Candida abicans): 6 mm; zone of inhibition at 150 mg/mL (Candida abicans): 6 mm
COc1cc(/C=C/C(=O)CC(=O)/C=C/c2ccc(O)c(OC)c2)ccc1O [compound 1, Curcumin] | 6 | 6 | 6 | 6 | 6 | 6 | 6 | 6 | significantly inhibited the growth | 10 | 10 | 6 | 6 | 10 | 10 | inhibited | 6 | 6 | 10 | 6 | inhibition of growth (Vibrio cholera): inhibited the growth; zone of inhibition at 100 mg/mL (Klebsiella sp.): 6 mm; zone of inhibition at 150 mg/mL (Klebsiella sp.): 6 mm; zone of inhibition at 100 mg/mL (S. aureus): 10 mm; zone of inhibition at 150 mg/mL (S. aureus): 10 mm; zone of inhibition (S. aureus; concentration not given): 10 mm; zone of inhibition at 100 mg/mL (Aeromonas sp.): 6 mm; zone of inhibition at 150 mg/mL (Aeromonas sp.): 6 mm; zone of inhibition at 100 mg/mL (Citrobacter sp.): 6 mm; zone of inhibition at 150 mg/mL (Citrobacter sp.): 6 mm; zone of inhibition at 150 mg/mL (Proteus sp.): 11 mm; zone of inhibition (Proteus sp.): 11 mm; zone of inhibition at 100 mg/mL (Candida abicans): 6 mm; zone of inhibition at 150 mg/mL (Candida abicans): 6 mm
